Source: patent US11518750B2, “3-methylideneoxan-4-one compounds and substituted derivatives thereof as inhibitors of telomerase” (NORTHWESTERN UNIVERSITY, priority 2019, dated 2022)

Target: T1, telomerase (MCF-7 cell lysates) (Homo sapiens, UniProt O14746)
T1 construct: endogenous in cells; host or cells: MCF-7
Assay: TRAP assay in cell lysates (PCR-based telomerase activity assay)
Format: biochemical
Conditions: IC50, Table 2, C-3 group; TRAP assay
From the text: In developing a preliminary structural activity relationship (SAR) for the chrologs, we divided the structure of the pyran into four main components: (1)C-2 substituents (carboxylic acid of chrolactomycin); (2) C-6 substituents (chrolactomycin macrolide loop); (3) C-3 substituents (fused γ-lactone of chrolactomycin) and (4) inclusion of the exocyclic methylene group. We carried out systematic modifications of each structural unit and evaluated the effects on telomerase activity as measured by a PCR-based telomerase activity assay (TRAP assay).^16
Telomeric Repeat Amplification Protocol Assay. The telomeric repeat amplification protocol (TRAP) assay was performed using the TRAPeze RT Telomerase Detection Kit (EMD Millipore) and iTaq DNA polymerase (Bio-Rad) according to the manufacturer's protocol.
Cell Lysate TRAP Analysis. MCF-7, HeLa, ACHN, MDA-MB231 and A549 cells were cultured in DMEM media supplemented with 10% Fetal Bovine Serum (FBS), 1% pen/strep and with 5% CO2 and 37° C. Cells were plated in 2×T75 flasks and cultured for 3 days. Flasks were rinsed twice with PBS and treated with 0.05% trypsin-EDTA (Thermo Fisher) to detach cells. […] Cell extracts were transferred to microcentrifuge tubes, 200 μl/tube, and centrifuged at 12,000×g for 20 min at 4° C. to remove cell debris. Stock solutions of compounds were made in DMSO with a concentration of 100 mM and a […] dilution was performed in DMSO in a 96-well plate to produce compound solutions of 100, 10, 1, 0.1, 0.01, and 0.001 mM (1000× of the final concentration). The 1000× stock solutions of the compound samples were transferred to a 96-well plate using the Echo 550 (Labcyte) and then diluted with the cell extracts to yield final compound concentrations of 100, 10, 1, 0.1, 0.01, and 0.001 μM. The plate was covered and shaken at room temperature for 30 min. For TRAPeze reactions, a “master mix” was prepared according to the TRAPeze protocol, containing 5 μl of the TRAPeze reaction mix; 0.4 μl Taq polymerase; 17.6 μl PCR grade, nuclease-free water. The master mix and treated cell extracts were transferred using the Mosquito Crystal Liquid Handling System (TTP Labtech) into separate wells in a white, 384-well RT-PCR plate. Each well contained 1.2 μl of the master mix and 1.2 μl of the treated cell extract to give a final volume of 2.4 μl, with two duplicates for each sample. The RT-PCR plate was then sealed and centrifuged for 5 min. A sample containing only CHAPS Lysis Buffer was included as negative control. The TSR8 standards were included to generate a standard curve. Samples were amplified in a CFW384 RT-PCR (BioRad) detection system with PCR parameters of 30 min at 30° C. for 1 cycle, 2 min at 95° C. for 1 cycle, and then 45 cycles of 15 s at 94° C., 60 s at 59° C., and 10 s at 45° C. Real-time fluorescent data was obtained during the 10 s at 45° C. step. The number of cycles at which the fluorescence level reached a threshold (Ct) was averaged between the duplicates for each sample. Using a calibration curve obtained from the TSR8 standards, a linear equation was obtained to convert the Ct values into arbitrary telomerase activity units, which were plotted as a function of compound concentration to construct dose-response curves and calculate IC50.

T1 sequence (O14746 whole entry): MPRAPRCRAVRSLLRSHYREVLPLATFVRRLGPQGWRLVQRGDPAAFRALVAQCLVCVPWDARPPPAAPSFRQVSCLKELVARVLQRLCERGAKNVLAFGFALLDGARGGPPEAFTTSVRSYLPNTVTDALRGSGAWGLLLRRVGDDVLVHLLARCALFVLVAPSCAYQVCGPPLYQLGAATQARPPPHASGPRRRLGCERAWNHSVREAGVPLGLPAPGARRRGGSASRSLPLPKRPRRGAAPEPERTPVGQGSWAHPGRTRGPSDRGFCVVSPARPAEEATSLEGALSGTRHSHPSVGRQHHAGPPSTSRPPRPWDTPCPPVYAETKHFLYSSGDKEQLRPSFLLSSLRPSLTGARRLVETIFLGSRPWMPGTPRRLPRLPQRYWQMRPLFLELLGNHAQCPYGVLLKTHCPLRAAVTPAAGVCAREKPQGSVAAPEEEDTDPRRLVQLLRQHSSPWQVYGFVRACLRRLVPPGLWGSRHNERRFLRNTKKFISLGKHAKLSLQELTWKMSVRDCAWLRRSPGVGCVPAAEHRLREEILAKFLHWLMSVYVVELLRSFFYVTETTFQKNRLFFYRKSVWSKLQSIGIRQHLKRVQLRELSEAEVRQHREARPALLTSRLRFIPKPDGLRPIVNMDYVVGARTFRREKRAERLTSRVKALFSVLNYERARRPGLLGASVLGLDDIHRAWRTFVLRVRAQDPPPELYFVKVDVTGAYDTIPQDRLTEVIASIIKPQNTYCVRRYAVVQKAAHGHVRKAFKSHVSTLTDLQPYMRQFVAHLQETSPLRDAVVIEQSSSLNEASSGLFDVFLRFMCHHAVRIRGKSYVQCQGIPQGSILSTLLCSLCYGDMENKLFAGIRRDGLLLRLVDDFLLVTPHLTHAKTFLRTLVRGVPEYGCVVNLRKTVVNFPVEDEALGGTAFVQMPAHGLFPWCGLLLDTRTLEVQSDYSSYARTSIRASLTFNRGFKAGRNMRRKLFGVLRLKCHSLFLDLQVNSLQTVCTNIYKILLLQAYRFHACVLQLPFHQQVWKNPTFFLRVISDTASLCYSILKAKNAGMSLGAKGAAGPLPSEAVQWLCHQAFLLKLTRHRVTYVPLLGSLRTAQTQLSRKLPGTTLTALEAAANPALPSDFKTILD
T1 sequence (O60832 whole entry partner): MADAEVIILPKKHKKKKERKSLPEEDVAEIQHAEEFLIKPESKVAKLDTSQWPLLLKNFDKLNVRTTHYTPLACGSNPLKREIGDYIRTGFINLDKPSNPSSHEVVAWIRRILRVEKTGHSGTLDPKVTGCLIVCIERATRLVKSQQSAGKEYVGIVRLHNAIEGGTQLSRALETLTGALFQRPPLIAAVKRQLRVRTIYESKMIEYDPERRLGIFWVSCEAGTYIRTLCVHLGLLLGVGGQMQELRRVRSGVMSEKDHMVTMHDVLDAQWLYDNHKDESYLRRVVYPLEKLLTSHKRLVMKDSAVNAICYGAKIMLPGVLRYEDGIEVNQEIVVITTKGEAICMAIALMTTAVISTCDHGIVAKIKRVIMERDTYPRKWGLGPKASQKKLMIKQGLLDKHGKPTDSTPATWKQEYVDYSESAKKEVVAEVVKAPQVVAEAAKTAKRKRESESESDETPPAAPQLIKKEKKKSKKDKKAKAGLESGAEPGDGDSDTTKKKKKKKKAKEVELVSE
T1 sequence (Q9NPE3 whole entry partner): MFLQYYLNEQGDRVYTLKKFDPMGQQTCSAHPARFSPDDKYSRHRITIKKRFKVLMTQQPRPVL
T1 sequence (Q9NX24 whole entry partner): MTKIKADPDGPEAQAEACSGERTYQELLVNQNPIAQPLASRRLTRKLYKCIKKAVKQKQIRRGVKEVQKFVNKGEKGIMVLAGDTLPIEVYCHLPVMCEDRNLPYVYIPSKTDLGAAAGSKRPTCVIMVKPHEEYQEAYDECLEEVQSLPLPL
T1 sequence (Q9NY12 whole entry partner): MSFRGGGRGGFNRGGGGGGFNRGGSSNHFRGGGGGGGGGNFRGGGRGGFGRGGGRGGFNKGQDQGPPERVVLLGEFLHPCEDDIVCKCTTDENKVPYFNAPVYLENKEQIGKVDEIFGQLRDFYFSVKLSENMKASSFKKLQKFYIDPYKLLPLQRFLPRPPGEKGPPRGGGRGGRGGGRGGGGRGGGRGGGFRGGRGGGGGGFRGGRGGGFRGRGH
T1 sequence (Q9BUR4 whole entry partner): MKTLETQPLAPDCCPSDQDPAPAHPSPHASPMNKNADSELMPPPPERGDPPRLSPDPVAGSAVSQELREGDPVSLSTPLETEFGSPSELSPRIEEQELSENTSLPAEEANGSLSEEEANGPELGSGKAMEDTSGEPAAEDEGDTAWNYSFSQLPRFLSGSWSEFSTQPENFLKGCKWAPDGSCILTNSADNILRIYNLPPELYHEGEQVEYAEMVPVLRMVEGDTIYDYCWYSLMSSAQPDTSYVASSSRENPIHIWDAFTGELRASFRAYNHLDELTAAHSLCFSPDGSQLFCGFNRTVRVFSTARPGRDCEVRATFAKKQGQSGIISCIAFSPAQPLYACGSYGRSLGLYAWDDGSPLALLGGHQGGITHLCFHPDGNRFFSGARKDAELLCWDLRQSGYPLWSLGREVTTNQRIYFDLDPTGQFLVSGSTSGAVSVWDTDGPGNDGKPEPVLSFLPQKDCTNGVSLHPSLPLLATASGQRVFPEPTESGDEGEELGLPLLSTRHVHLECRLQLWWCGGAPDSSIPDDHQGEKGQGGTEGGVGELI

Structure (SMILES)	IC50
C=C1C(=O)[C@@](C)(C(=O)OCCCC)[C@@H](CCc2ccc(NC(C)=O)cc2)O[C@H]1C (racemic) [Compound 4n, (±) butyl (2S,3R,6R)-2-(4-acetamidophenethyl)-3,6-dimethyl-5-methylene-4-oxotetrahydro2H-pyran-3-carboxylate]	85 µM

Same assay, conditions: TRAP assay, MCF-7 cell lysates; read-out: IC50

IC50	Structure (SMILES)
1.5 µM	C=C1C(=O)[C@](C)(C(=O)OC)[C@H](CCc2ccc(NC(C)=O)cc2)O[C@@H]1C (racemic) [Compound 4a, (±) methyl (2S,3R,6R)-2-(4-acetamidophenethyl)-3,6-dimethyl-5-methylene-4-oxotetrahydro2H-pyran-3-carboxylate]
0.9 µM	C=C1C(=O)C(C)(C(=O)OC)C(CCc2ccc(NC(C)=O)cc2)OC1C (single isomer, unassigned) [enantiopure para N-acetylphenethyl analogue]
4.5 µM	C=C1C(=O)C(C)(C(=O)OC)C(CCc2ccc(NC(C)=O)cc2)OC1C (single isomer, unassigned) [opposite antipode]
2.1 µM	C=C1C(=O)[C@]2(C)C(=O)O[C@@]34C[C@H](C)C(C(=O)O)=C[C@@H]3CCC[C@@H](C)C[C@@H](C)[C@H]1O[C@H]24 [okilactomycin, reference compound]

Same assay, conditions: Table 1, C-2 and C-6 groups; TRAP assay; read-out: IC50

Structure (SMILES)	IC50
C=C1C(=O)[C@](C)(C(=O)OC)[C@H](CC(C)C)O[C@@H]1C (racemic) [Compound 4c, (±) methyl (2S,3R,6R)-2-isobutyl-3,6-dimethyl-5-methylene-4-oxotetrahydro-2H-pyran-3 carboxylate]	> 100 µM
C=C1C(=O)[C@@](C)(C(=O)OC)[C@@H](CCc2ccc(NC(C)=O)cc2)O[C@H]1CC(C)C (racemic) [Compound 4i, (±) methyl (2S,3R,6R)-2-(4-acetamidophenethyl)-6-isobutyl-3-methyl-5-methylene-4oxotetrahydro-2H-pyran-3-carboxylate]	45 µM
C=C1C(=O)[C@@](C)(C(=O)OC)[C@@H](CCc2ccc(NC(C)=O)cc2)O[C@H]1CCc1ccccc1 (racemic) [Compound 4j, (±) methyl (2S,3R,6R)-2-(4-acetamidophenethyl)-3-methyl-5-methylene-4-oxo-6phenethyltetrahydro-2H-pyran-3-carboxylate]	> 100 µM

Further lines, results first:

IC50	Structure (SMILES)
1.5 µM	C=C1C(=O)[C@](C)(C(=O)OC)[C@H](CCc2ccc(NC(C)=O)cc2)O[C@@H]1C (racemic) [Compound 4a, (±) methyl (2S,3R,6R)-2-(4-acetamidophenethyl)-3,6-dimethyl-5-methylene-4-oxotetrahydro2H-pyran-3-carboxylate]
> 100 µM	C=C1C(=O)[C@](C)(C(=O)OC)[C@H](CCc2ccccc2)O[C@@H]1C (racemic) [Compound 4b, (±) methyl (2S,3R,6R)-3,6-dimethyl-5-methylene-4-oxo-2-phenethyltetrahydro-2H-pyran-3 carboxylate]
42 µM	C=C1C(=O)[C@](C)(C(=O)OC)[C@H](CCc2ccc(F)cc2)O[C@@H]1C (racemic) [Compound 4d, (±) methyl (2S,3R,6R)-2-(4-fluorophenethyl)-3,6-dimethyl-5-methylene-4-oxotetrahydro-2H pyran-3-carboxylate]
55 µM	C=C1C(=O)[C@@](C)(C(=O)OC)[C@@H](CCc2ccc(C(F)(F)F)cc2)O[C@H]1C (racemic) [Compound 4e, (±) methyl (2S,3R,6R)-3,6-dimethyl-5-methylene-4-oxo-2-(4(trifluoromethyl)phenethyl)tetrahydro-2H-pyran-3-carboxylate]
62 µM	C=C1C(=O)[C@](C)(C(=O)OC)C(CCc2ccc(OC)cc2)O[C@@H]1C (mixture of isomers) [Compound 4f, (±) methyl (2S,3R,6R)-2-(4-methoxyphenethyl)-3,6-dimethyl-5-methylene-4-oxotetrahydro2H-pyran-3-carboxylate]
11 µM	C=C1C(=O)[C@@](C)(C(=O)OC)[C@@H](CCc2cccc(NC(C)=O)c2)O[C@H]1C (racemic) [Compound 4g, (±) methyl (2S,3R,6R)-2-(3-acetamidophenethyl)-3,6-dimethyl-5-methylene-4-oxotetrahydro2H-pyran-3-carboxylate]
> 100 µM	C=C1C(=O)[C@@](C)(C(=O)OC)[C@@H](CCc2cccc(F)c2)O[C@H]1C (racemic) [Compound 4h, (±) methyl (2S,3R,6R)-2-(3-fluorophenethyl)-3,6-dimethyl-5-methylene-4-oxotetrahydro-2H pyran-3-carboxylate]

Same assay, conditions: Table 2, C-3 group; TRAP assay; read-out: IC50

Structure (SMILES)	IC50
C=C1C(=O)[C@@](C)(C(=O)OC(C)C)[C@@H](CCc2ccc(NC(C)=O)cc2)O[C@H]1C (racemic) [Compound 4k, (±) isopropyl (2S,3R,6R)-2-(4-acetamidophenethyl)-3,6-dimethyl-5-methylene-4oxotetrahydro-2H-pyran-3-carboxylate]	45 µM
C=C1C(=O)[C@@](C)(C(=O)OCC2CC2)[C@@H](CCc2ccc(NC(C)=O)cc2)O[C@H]1C (racemic) [Compound 4l, (±) cyclopropylmethyl (2S,3R,6R)-2-(4-acetamidophenethyl)-3,6-dimethyl-5-methylene-4oxotetrahydro-2H-pyran-3-carboxylate]	75 µM
C=C1C(=O)[C@@](CC)(C(=O)OC)[C@@H](CCc2ccc(NC(C)=O)cc2)O[C@H]1C (racemic) [Compound 4q, (±) methyl (2S,3R,6R)-2-(4-acetamidophenethyl)-3-ethyl-6-methyl-5-methylene-4oxotetrahydro-2H-pyran-3-carboxylate]	15 µM
C=C1C(=O)[C@@](C(=O)OC)(C(C)C)[C@H](CCc2ccc(NC(C)=O)cc2)O[C@@H]1C (racemic) [Compound 4r, (±) methyl (2S,3R,6R)-2-(4-acetamidophenethyl)-3-isopropyl-6-methyl-5-methylene-4oxotetrahydro-2H-pyran-3-carboxylate]	62 µM
C=C1C(=O)[C@](C)(C(=O)OCCOC)[C@@H](CCc2ccc(NC(C)=O)cc2)O[C@H]1C [Compound 4p]	25 µM

Results, then the molecule that gave them:

IC50	Structure (SMILES)
1.5 µM	C=C1C(=O)[C@](C)(C(=O)OC)[C@H](CCc2ccc(NC(C)=O)cc2)O[C@@H]1C (racemic) [Compound 4a, (±) methyl (2S,3R,6R)-2-(4-acetamidophenethyl)-3,6-dimethyl-5-methylene-4-oxotetrahydro2H-pyran-3-carboxylate]
35 µM	C=C1C(=O)[C@](C)(C(=O)OCc2ccccc2)C(CCc2ccc(NC(C)=O)cc2)O[C@@H]1C (mixture of isomers) [Compound 4m, (±) benzyl (2S,3R,6R)-2-(4-acetamidophenethyl)-3,6-dimethyl-5-methylene-4-oxotetrahydro2H-pyran-3-carboxylate]

Test system: tcTERT
Assay: Protease digestion and mass spectrometry of treated tcTERT
Format: binding, Tribolium castaneum
Conditions: proteolysis and tandem mass spectrometry
Experimental: Protease Digestion and Mass Spectrometry Analysis. tcTERT (50 μg, ˜600 pmol) was treated with chrolactomycin, NU-1, helenalin, costunolide or DMSO for 1 hr at 37° C. The reaction was diluted with ammonium bicarbonate buffer (pH 8.0), then reduced for 30 min at 56° C. with 10 mM DTT. After cooling to 23° C., the protein was alkylated with 25 mM iodoacetamide for 30 min at 23° C. in the dark, followed by trypsin digestion (2.5 μg, Promega) overnight at 37° C. Digested peptides (˜2 pmol) were injected onto a self-packed precolumn (4 cm POROS10R2) and eluted into the mass spectrometer (LTQ Orbitrap Velos, Thermo Fisher). Peptides were subjected to MS^2 by CAD (electron multiplier detection, relative collision energy 35%, q=0.25).

Structure (SMILES)	adduct formation with tcTERT peptides
C=C1C(=O)O[C@@H]2/C=C(\C)CC/C=C(\C)CC[C@@H]12 [costunolide]	no adduct formation
C=C1C(=O)O[C@@H]2C[C@@H](C)[C@@H]3C=CC(=O)[C@@]3(C)[C@@H](O)[C@H]12 [helenalin]	no adduct formation
